This note sets out measurements from patent publication US20070197590A1, “SUBSTITUTED DIPIPERIDINE CCR2 ANTAGONISTS” (priority 2006, published 2007).

One experiment deals with T1, CCR2 (Homo sapiens, UniProt P41597).
T1 construct: host or cells: THP-1 cells
T1 sequence (P41597 1-360 isoform P41597-2): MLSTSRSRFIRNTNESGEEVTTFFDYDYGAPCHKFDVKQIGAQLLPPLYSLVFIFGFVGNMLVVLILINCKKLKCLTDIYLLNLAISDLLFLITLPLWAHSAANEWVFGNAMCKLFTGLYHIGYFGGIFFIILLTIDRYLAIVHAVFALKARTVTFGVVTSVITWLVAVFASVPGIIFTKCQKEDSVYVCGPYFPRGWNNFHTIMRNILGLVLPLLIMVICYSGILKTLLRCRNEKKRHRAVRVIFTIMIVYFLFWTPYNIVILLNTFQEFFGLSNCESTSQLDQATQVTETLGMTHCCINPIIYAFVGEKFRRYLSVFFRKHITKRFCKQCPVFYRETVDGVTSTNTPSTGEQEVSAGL
Description: MCP-1 Receptor Binding Assay in THP-1 Cells. The conditions noted are these: THP-1 cells, 0.5 nM 125I labeled MCP-1, 2 hours at 30° C.; read-out: Inhibition of MCP-1 Binding IC50. The method in brief:
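Whole THP-1 cells incubated 2 h at 30° C with 0.5 nM 125I-MCP-1 and varying compound concentrations; bound radioactivity harvested on filters and counted by scintillation. Nonspecific binding with 1 μM cold MCP-1; IC50 for inhibition of binding versus vehicle.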

For experiment [1], the system named is MCP-1 induced calcium ion influx in THP-1 cells. Description: MCP-1 Induced Calcium Mobilization in THP-1 Cells. In kind it is cell-based. The settings on record: for IC50: 0.2 μM MCP-1, FLIPR, read-out: Inhibition of MCP-1 Induced Calcium Ion Influx IC50; for inhibition at 25 µM: THP-1, test concentration of 25 μM, given where an IC50 value was not obtained, read-out: Inhibition of MCP-1 Induced Calcium Ion Influx, percent inhibition. Here is the method:
THP-1 cells were plated at a density of 8×10^5 cells/mL (100 μL/well) into poly-D lysine coated clear bottom, black 96 well plates. The cells were loaded with 5 μM fluo-3 for 45 minutes. The fluo-3 washed off and cells were incubated with varying concentrations of test compound for 15 minutes. The change in calcium ion concentration upon addition of 0.2 μM MCP-1 was determined using FLIPR and compared to vehicle.
Table 2 lists IC50 values for inhibition of MCP-1 induced influx of calcium ions.
(A change in cytosolic calcium serves as a functional read-out for many receptors and channels.)

The mark [2] stands for this setting: Homo sapiens, THP-1, THP-1 cells.

Broadly, the IC50 is the midpoint of a concentration-inhibition curve. Usually inhibition stands for the change of the read-out against control, counted positive when it falls.

Molecules are shown by their SMILES. Like-named read-outs stand apart in the source and are kept apart here.

In the case of `COc1ccc(C2CCN(CC(O)C3CCN(C(=S)Nc4cc(Cl)cc(Cl)c4)CC3)CC2)cc1` (stereo not drawn) [Compound 89, 4-{1-hydroxy-2-[4-(4-methoxy-phenyl)-piperidin-1-yl]-ethyl}-piperidine-1-carbothioic acid (3,5-dichloro-phenyl)-amide], the half-maximal inhibitory concentration (IC50) at CCR2 was found to be 550 nM; in experiment [1] (setting [2]), 1800 nM.
As to `COc1ccc(C2CCN(CC(O)C3(O)CCN(C(=O)/C=C/c4cccc(C)c4)CC3)CC2)cc1` (stereo not drawn) [Compound 95], the half-inhibitory concentration (IC50) on CCR2 was 1400 nM. Further, the inhibition at 25 µM in experiment [1] (Homo sapiens) was 53%.
On to `COc1ccc(C2CCN(CC(O)C3CCN(C(=S)Nc4cccc(Cl)c4)CC3)CC2)cc1` (stereo not drawn) [Compound 102, 4-{1-hydroxy-2-[4-(4-methoxy-phenyl)-piperidin-1-yl]-ethyl}-piperidine-1-carbothioic acid (3-chloro-phenyl)-amide], for which the IC50 on CCR2 stood at 480 nM; in experiment [1] (setting [2]), 2500 nM.
On to `COc1ccc(C2CCN(CC(O)C3CCN(C(=S)Nc4cccc(OC)c4)CC3)CC2)cc1` (stereo not drawn) [Compound 103, 4-{1-hydroxy-2-[4-(4-methoxy-phenyl)-piperidin-1-yl]-ethyl}-piperidine-1-carbothioic acid (3-methoxy-phenyl)-amide], for which the IC50 turned out to be 500 nM on CCR2 and 2200 nM in experiment [1] (THP-1 cells).
For `COc1ccc(C2CCN(CC(O)C3CCN(C(=S)Nc4cccc(C(F)(F)F)c4)CC3)CC2)cc1` (stereo not drawn) [Compound 105, 4-{1-hydroxy-2-[4-(4-methoxy-phenyl)-piperidin-1-yl]-ethyl}-piperidine-1-carbothioic acid (3-trifluoromethyl-phenyl)-amide] the same measures were 540 nM and 3400 nM.
Take `COc1ccc(C2CCN(CC(O)C3CCN(C(=S)Nc4ccc(C(F)(F)F)cc4)CC3)CC2)cc1` (stereo not drawn) [Compound 106, 4-{1-hydroxy-2-[4-(4-methoxy-phenyl)-piperidin-1-yl]-ethyl}-piperidine-1-carbothioic acid (4-trifluoromethyl-phenyl)-amide]: the values for the half-inhibitory concentration (IC50) (on CCR2; in experiment [1] (setting [2])) were 760 nM and 2600 nM, respectively.
For the compound `COc1ccc(C2CCN(CC(O)C3CCN(C(=S)Nc4ccc(Cl)c(Cl)c4)CC3)CC2)cc1` (stereo not drawn) [Compound 108, 4-{1-hydroxy-2-[4-(4-methoxy-phenyl)-piperidin-1-yl]-ethyl}-piperidine-1-carbothioic acid (3,4-dichloro-phenyl)-amide], the IC50 at CCR2 came out at 210 nM; in experiment [1] (THP-1 cells) it was 480 nM.
Take `COc1ccc(C2CCN(CC(O)C3(O)CCN(C(=O)/C=C/c4ccsc4)CC3)CC2)cc1` (stereo not drawn) [Compound 113]: the IC50 at CCR2 was determined as 1600 nM; in experiment [1] (setting [2]) it was 4900 nM.
As to `COc1ccc(C2CCN(CC(O)C3(O)CCN(C(=O)Nc4ccc(F)c(F)c4)CC3)CC2)cc1` (stereo not drawn) [Compound 114, 4-hydroxy-4-{1-hydroxy-2-[4-(4-methoxy-phenyl)-piperidin-1-yl]-ethyl}-piperidine-1-carboxylic acid (3,4-difluoro-phenyl)-amide], at CCR2, the IC50 came to 1100 nM. Besides, the inhibition at 25 µM in experiment [1] (Homo sapiens) is 55%.
For `COc1ccc(C2CCN(CC(O)C3(O)CCN(C(=O)Nc4cc(F)cc(F)c4)CC3)CC2)cc1` (stereo not drawn) [Compound 115, 4-hydroxy-4-{1-hydroxy-2-[4-(4-methoxy-phenyl)-piperidin-1-yl]-ethyl}-piperidine-1-carboxylic acid (3,5-difluoro-phenyl)-amide] the same measures were 910 nM and 57%.
For the compound `COc1ccc(C2CCN(CC(O)C3(O)CCN(C(=O)Nc4ccc(Cl)c(Cl)c4)CC3)CC2)cc1` (stereo not drawn) [Compound 116, 4-hydroxy-4-{1-hydroxy-2-[4-(4-methoxy-phenyl)-piperidin-1-yl]-ethyl}-piperidine-1-carboxylic acid (3,4-dichloro-phenyl)-amide], the IC50 at CCR2 came to 530 nM; in experiment [1] (setting [2]) it was 840 nM.
In the case of `COc1ccc(C2CCN(CC(O)C3(O)CCN(C(=S)Nc4ccc(Cl)c(Cl)c4)CC3)CC2)cc1` (stereo not drawn) [Compound 117, 4-hydroxy-4-{1-hydroxy-2-[4-(4-methoxy-phenyl)-piperidin-1-yl]-ethyl}-piperidine-1-carbothioic acid (3,4-dichloro-phenyl)-amide], the half-inhibitory concentration (IC50) at CCR2 amounted to 1300 nM; in experiment [1] (setting [2]), 1200 nM.
